In US20110293745A1, “AURORA KINASE INHIBITORS” (SUNESIS PHARMACEUTICALS, INC., priority 2008, published 2011):

How the values were obtained:
[1] = tested on: MV-4-11 (human acute myeloid leukemia) xenograft; test: In vivo efficacy, mouse xenograft; conditions: 150 mg/kg IP twice-weekly for 3 weeks
Procedure: The human cell line MV-4-11 (human acute myeloid leukemia) was established as subcutaneous xenografts in nu/nu female mice. Animals were randomized by tumor volume and distributed into groups of ten animals each. Treatments were initiated when tumors averaged about 200 mm^3 in volume. End points for each group were determined based on body weight nadir, adverse clinical observations, or tumor volumes exceeding maximum threshold of 2000 mm^3.
[…]. Responses were assessed by tumor growth inhibition (TGI) and tumor growth delay (TGD). TGI and TGD in the treatment group were evaluated against the vehicle control group.

HCT 116 tumor xenograft = test: Microscopy of tumor sections (Caspase-3, H&E); format: in vivo, mouse; conditions: 170 mg/kg twice-weekly for three weeks
Procedure: The studies in Examples 20, 21, and 22 used female mice nu/nu athymic mice. Compound 1 was formulated fresh each week for dosing.
HCT 116 colorectal carcinoma cells were implanted in the animals' right hind flanks subcutaneously with 200 μL of a 2.5×10^7 cells/mL suspension [1:1 Dulbecco's PBS (DPBS) with cells:Matrigel™. For each of the studies of compound distribution, pHH3 levels, and tumor section microscopy, after the tumors reached an average volume of 500 mm^3, the animals were weighed and sorted into randomized groups before initial dosing. Dosing schedules are provided separately for each of the studies in Examples 28, 29, and 30.
Following the treatment, tumors were harvested, placed in Streck fixative, paraffin embedded, sectioned, and transferred to slides. Tumor sections were stained with hematoxylin and eosin (H&E). Hematoxylin stains negatively charged nucleic acid structures, such as nuclei and ribosomes, blue, whereas eosin stains proteins pink. Treatments were administered on Day 1, 4, 8, 11, 15, and 18, with tumors being excised Day 4, 11, 18, and 25 of the study. All images in this Figure were taken at 40× magnification.

[2] = tested on: cleaved PARP in MV-4-11 xenograft tumors; test: PARP cleavage in tumor lysates (western blotting); format: in vivo, mouse; conditions: single IP dose 50 mg/kg or 100 mg/kg; 2, 6, 24 hrs
Procedure: (§1) PARP cleavage was measured in HCT 116 (colon carcinoma) and MV-4-11 tumor lysates by western blotting. […] HCT 116 tumors were collected 3, 6 and 12 hrs post dosing; MV-4-11 tumors were collected at 2, 6 and 24 hrs post dosing. […] Tumors were lysed in cell extraction buffer (Biosource # FNN0011) containing protease inhibitors (Sigma # P2714), and PMSF Phenylmethanesulfonyl fluoride (PMSF) [#P7626, Sigma]. Forty micrograms of protein for each sample was loaded and run on 4-12% Tris-Glycine NuPAGE gel (Invitrogen), in Novex Tris-Glycine running buffer (Invitrogen). After gel separation, proteins were electro-transferred to a PVDF membrane (Invitrogen).

[3] = tested on: cleaved PARP in HCT 116 xenograft tumors; test: PARP cleavage in tumor lysates (western blotting); format: in vivo, mouse; conditions: single IP dose 170 mg/kg
Procedure: as §1

HT-29 = test: cells; conditions: Homo sapiens, HT-29, 96 h, read-out: BrdU IC50
Procedure: Cellular proliferation was assessed using the Cell Proliferation ELISA, bromodeoxyuridine (BrdU) kit (Roche) including reagents, according to the kit protocol.

c-Raf = biological target: T1, c-Raf (Homo sapiens, UniProt P04049); test: Radiometric kinase assay (Upstate panel); format: biochemical
T1 construct: purchased Upstate Biotechnology, Dundee, UK
T1 sequence (P04049 whole entry): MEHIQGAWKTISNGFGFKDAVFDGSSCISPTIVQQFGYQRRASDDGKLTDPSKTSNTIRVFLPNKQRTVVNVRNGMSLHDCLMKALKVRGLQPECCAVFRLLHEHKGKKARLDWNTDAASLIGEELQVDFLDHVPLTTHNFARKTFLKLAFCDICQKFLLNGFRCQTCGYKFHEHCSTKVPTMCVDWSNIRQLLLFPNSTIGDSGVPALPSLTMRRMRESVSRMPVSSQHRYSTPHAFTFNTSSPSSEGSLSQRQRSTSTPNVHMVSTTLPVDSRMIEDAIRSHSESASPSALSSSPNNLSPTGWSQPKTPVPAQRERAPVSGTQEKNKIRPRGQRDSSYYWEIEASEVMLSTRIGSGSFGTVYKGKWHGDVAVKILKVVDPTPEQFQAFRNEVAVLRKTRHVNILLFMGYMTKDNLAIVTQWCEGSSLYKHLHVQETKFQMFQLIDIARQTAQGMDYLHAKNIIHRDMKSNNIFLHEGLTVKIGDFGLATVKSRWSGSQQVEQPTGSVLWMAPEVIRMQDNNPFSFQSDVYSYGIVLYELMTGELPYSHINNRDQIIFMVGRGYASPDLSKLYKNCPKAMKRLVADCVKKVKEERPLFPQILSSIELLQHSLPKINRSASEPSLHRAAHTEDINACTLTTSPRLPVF

HCT 116 cells [4] = test: Fluorescent imaging (DNA and tubulin); format: cell-based, human; conditions: 16 nM, 72 hr
Procedure: Cells were then fixed with 4% paraformaldehyde for 20 min at room temperature, washed with 1×PBS three times, permeabilized with 0.1% Triton® X-100 nonionic surfactant for 5 min at room temperature, washed with 1×PBS twice, blocked with 10% fetal bovine serum (FBS) in PBS for 2 hr at room temperature. The cells were incubated in a diluted alpha-tubulin primary antibody solution in 10% FBS for 2 days at 4° C., and stained with DAPI (DNA/.blue) and with a diluted FITC-labeled secondary antibody (tubulin/green) solutions in 10% FBS for 1 hr at room temperature away from light. Cells were then washed in 1×PBS and the coverslips were mounted on slides and analyzed with a […]2 fluorescence microscope with a 63× oil immersion objective. Images were captured on a […] camera and analyzed using Image-Pro software. For both images captured, the same objective was used.

HCT 116 cells [5] = test: Flow cytometry, DNA content (propidium iodide); format: cell-based, human; conditions: 36 nM, 16 hours
Procedure: HCT 116 cells were seeded at 10,000 cells per well in 12-well plates and cells were incubated 24 hr at 37° C. […] After 16 hrs, media was aspirated and placed in a labeled collection tube, cells were trypsinized with 100 μL trypsin for 5 min at room temperature, quenched with fresh media, and placed in the collection tube with their appropriate media aspirate. Cells were spun at 2000 RPM for 5 min, supernatant was aspirated, and cells were re-suspended in 50 μl, 1× phosphate buffered saline (PBS) and 200 μL 100% methanol. Samples were then placed at −20° C. Cells fixed in methanol were spun at 2000 RPM for 5 min, supernatant was removed and cells were washed with 500 μL 0.1% bovine serum albumin (BSA) in PBS. Cells were re-suspended in 100 μL propidium iodide (PI) staining solution [prepared from 10 μg/mL PI (Sigma #P4864), 100 μg/mL RNase (Sigma #R4642) in PBS] and incubated at 37° C. for 1 hr. Cell populations were then analyzed by flow cytometry on Fluorescence-Activated Cell Sorter (FACS) instrumentation (FACSCalibur; Becton-Dickinson) according to common techniques. The distribution of cells in the various phases of cell cycle was assessed by propidium iodide (PI) staining of DNA. The total intensity of PI was considered to reflect the DNA content of cells.

[6] = Protein binding, Rapid Equilibrium Dialysis; format: in vitro ADME; conditions: 15 μM
Procedure: Studies were performed using the Rapid Equilibrium Dialysis (RED) device (Linden Bioscience). Inserts were soaked in water for 10 min×2, then removed and drained immediately prior to use. […] All experiments were performed in duplicate and each chamber was sampled in duplicate. The samples were incubated for 4-6 h at 37° C. in a rotating incubator (100 rpm). Compound 2 was quantified using LC-MS/MS. Data from duplicate samples each sampled twice.

SMILES | tumor growth delay [1] [days] | Percent tumor growth inhibition (% TGI) ([1]; p-value 0.0008) [%] | large polyploid cells in tumor (HCT 116 tumor xenograft) | caspase-3 positive cells in tumor versus vehicle (HCT 116 tumor xenograft; up to 18 days) | PARP cleavage [2] | time after dose PARP cleavage is maintained [3] | time after dose at which PARP cleavage became evident [3] [h] | IC50 (HT-29) [nM] | IC50 (c-Raf) [µM] | cell morphology (HCT 116 cells [4]) | DNA content of cells (HCT 116 cells [5]) | mean percentage protein-bound ([6]; dog plasma) | mean percentage protein-bound ([6]; human plasma) | mean percentage protein-bound ([6]; mouse plasma)
CS(=O)(=O)O.O=C(Nc1cccc(Cl)c1)Nc1ncc(CCNc2ncnc3ccsc23)s1 [Compound 1, 1-(3-chlorophenyl)-3-{5-[2-(thieno[3,2-d]pyrimidin-4-ylamino)ethyl]thiazo}-urea] | 10 | 75.56 | appeared by Day 4 and persisted for at least 25 days | significant increase | dose- and time-dependent | at least 12 hr | 3 | 24.4 | 0.1 | formation of large polyploid cells | predominantly 4N and 8N DNA content | – | – | –
O=C(Nc1cccc(Cl)c1)Nc1ncc(CCNc2ncnc3ccsc23)s1 [Compound 2, 1-(3-chlorophenyl)-3-{5-[2-(thieno[3,2-d]pyrimidin-4-ylamino)ethyl]thiazol-2-yl}-urea] | – | – | – | – | – | – | – | – | – | – | – | greater than or equal to 99.9% | greater than or equal to 99.9% | greater than or equal to 99.9%
